Assay results from US5235039A, “Substrates for HIV protease” (Eli Lilly and Company, priority 1991, dated 1993).

Target: T1, HIV-1 protease (HIV-1 M:B_HXB2R, UniProt P04585)
T1 construct: enzyme solution in MES-ALB buffer
Assay: HIV-1 protease inhibitor assay (particle concentration fluorescence, Pandex)
Type: biochemical
Conditions: inhibitor at a concentration of about 7 μM; FIG. 1
Description: The modified decapeptide is dissolved in a suitable buffer at a pH between about 5 and about 6 to form a solution at a desirable concentration, e.g. about 1.5 μg/ml. A separate solution of the protease in the same buffer is prepared at a sufficient concentration of protease to hydrolyze all substrate. To each well of a round-bottom, 96-well plate, e.g. a polystyrene microtiter plate, is added the enzyme solution followed by a buffered solution of the inhibitor compound. The solution of the inhibitor may be diluted in 20% aqueous dimethylsulfoxide when necessary for solubility. The plates are allowed to stand for about one hour at about room temperature before the substrate solution is added to each well. […] Unbound fluorescence is removed by filtration and subsequent washing with buffer. Any bound fluorescence is detected by excitation at 485 nm and reading the resulting epifluorescence at 535 nm. The amount of fluorescence indicates the extent to which the enzymatic reaction is inhibited.
As described hereinabove the Pandex Plates used in the assay method are 96-well two-chamber plates (upper and lower chambers) wherein the chambers are separated by a […] pore size membrane. […] Any fluorescent marked cleavage fragment (unbound fluorescence) in the wells is washed from the well and out of the plate. […]

Ac-Nal-Pro-Phe-Val-Sta-Leu-Phe-NH2
percent inhibition of the protease: 100%
